From PMC12952243, “Dual targeting of the mitochondrial Lon peptidase 1 and the chymotrypsin-like proteasome activity as a potential therapeutic strategy in malignant astrocytoma models” (Pharmacological research, 2024)
pIC50: −log10 of the molar value.

Target: T1, Mitochondrial Lon Peptidase 1 (LonP1) (Homo sapiens, UniProt P36776)
T1 construct: LonP1 immunopurified from mitochondria of HOG cells overexpressing LonP1
T1 sequence (P36776 68-959): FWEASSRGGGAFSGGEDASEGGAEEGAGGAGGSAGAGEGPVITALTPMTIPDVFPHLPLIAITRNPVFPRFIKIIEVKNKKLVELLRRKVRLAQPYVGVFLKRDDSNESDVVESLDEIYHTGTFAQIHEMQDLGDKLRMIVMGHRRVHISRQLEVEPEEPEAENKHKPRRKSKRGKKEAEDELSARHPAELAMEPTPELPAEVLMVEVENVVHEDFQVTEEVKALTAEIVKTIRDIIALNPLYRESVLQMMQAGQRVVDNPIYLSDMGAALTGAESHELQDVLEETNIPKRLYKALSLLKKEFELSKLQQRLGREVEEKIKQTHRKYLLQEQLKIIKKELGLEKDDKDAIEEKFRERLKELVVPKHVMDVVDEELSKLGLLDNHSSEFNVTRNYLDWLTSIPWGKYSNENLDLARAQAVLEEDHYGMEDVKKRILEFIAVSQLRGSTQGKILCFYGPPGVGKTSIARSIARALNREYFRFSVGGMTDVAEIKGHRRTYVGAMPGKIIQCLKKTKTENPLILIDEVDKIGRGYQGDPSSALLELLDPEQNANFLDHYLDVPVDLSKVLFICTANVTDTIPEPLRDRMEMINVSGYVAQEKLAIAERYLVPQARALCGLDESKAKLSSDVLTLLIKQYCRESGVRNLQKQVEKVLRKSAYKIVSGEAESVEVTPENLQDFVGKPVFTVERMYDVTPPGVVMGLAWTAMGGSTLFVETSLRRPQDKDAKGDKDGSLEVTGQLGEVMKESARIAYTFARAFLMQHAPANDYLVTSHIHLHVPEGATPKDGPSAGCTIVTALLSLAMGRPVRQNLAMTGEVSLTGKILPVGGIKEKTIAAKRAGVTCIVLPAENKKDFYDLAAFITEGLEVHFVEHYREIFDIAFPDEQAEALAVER
Experiment: FITC-casein fluorescent protease assay with immunopurified LonP1
Assay type: biochemical

SMILES | pIC50
O=C(Nc1ccc(O)cc1)c1cc2cc(Cl)ccc2oc1=O [BT317] | 4.51
Cc1cc(NC(C#N)C2=Cc3cc(Cl)cc(Cl)c3OC2c2ccccc2)ccc1B1OC(C)(C)C(C)(C)O1 (stereo not shown) [BT395] | 4.30
Cc1cc(NC(C#N)C2=Cc3cc(Cl)cc(Cl)c3OC2c2ccccc2)ccc1[B-](F)(F)F (stereo not shown) [BT397] | 4.46
CC1(C)OB(c2cccc(N(Cc3ccccc3)C(=O)CCl)c2)OC1(C)C [BT399] | 3.91
